≈ marks a conversion by molar mass, not a printed value. Where “and” joins values, the source holds several entries; their conditions need not be identical. Identical values can stand only once. Like-named read-outs stand apart in the source and are kept apart here.
Assays:
[1] = target: recombinant human MEK 1 (MAPKK) and recombinant human ERK2 (MAPK); assay: Mitogen Activated Protein Kinase (MAPK) assay, two component coupled MEK 1 / ERK2; assay type: biochemical; details: separate entries for the same compound = evaluated more than one time;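 further: MEK 1-activated ERK2 phosphorylates MBP or Myc peptide with 33P-ATP, filter capture and scintillation counting, inhibitor preincubated with ERK2 30 min at 0 °C, inhibition relative to uninhibited control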
[2] = target: T1, Kinase insert Domain containing Receptor (KDR: the catalytic domain of the VEGF receptor) (Homo sapiens, UniProt P35968); assay: Inhibition of Kinase insert Domain containing Receptor (KDR); assay type: biochemical;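 further: KDR phosphorylating a Glu:Tyr 4:1 copolymer with P32- or P33-labelled ATP, Mg++ and vanadate, read as acid-insoluble radiolabel, compared with compound-free reaction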
T1 construct: KDR: the catalytic domain of the VEGF receptor

[3] = system: A431; assay: Inhibition of cancer cell growth as measured by cell number, A431; assay type: cell-based, human; details: Homo sapiens, A-431, 48 h, Table 8;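 further: human A431 line, picked because it overexpresses epidermal growth factor receptor (EGFR)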
Description: (§1) The cell lines were chosen since they overexpressed epidermal growth factor receptor (EGFR) (i.e. A431) or HER2/neu (SKBR3), or had little to no expression of the these receptors (SW620, LOX, MCF7).

[4] = system: SKBR3; assay: Inhibition of cancer cell growth as measured by cell number, SKBR3; assay type: cell-based, human; details: Homo sapiens, Table 8;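 further: SK-BR-3 cells were selected as a line overexpressing HER2/neu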
Description: as §1

[5] = system: SW620; assay: Inhibition of cancer cell growth as measured by cell number, SW620; assay type: cell-based, human; details: Homo sapiens, SW-620, 48 h, Table 8;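 further: SW620 was included as a cell line with little or no EGFR or HER2/neu expression, in contrast to receptor-overexpressing lines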
Description: as §1

[6] = system: MCF7; assay: Inhibition of cancer cell growth as measured by cell number, MCF7; assay type: cell-based, human; details: Homo sapiens, MCF7, 48 h, Table 8;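 further: MCF7 was included as a line with little or no EGFR or HER2/neu expression, in contrast to the receptor-overexpressing lines of the panel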
Description: as §1

[7] = system: LOX; assay: Inhibition of cancer cell growth as measured by cell number, LOX; assay type: cell-based, human; details: Homo sapiens, LOX, 48 h, Table 8;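 further: LOX cells served as a line with low or absent EGFR and HER2/neu expression, in contrast to receptor-overexpressing lines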
Description: as §1

[8] = target: T2, His-tagged cytoplasmic domain of EGFR (Homo sapiens, UniProt P00533); assay: Inhibition of Epidermal Growth Factor Receptor Kinase (EGF-R) using recombinant enzyme; assay type: biochemical; details: recombinant enzyme; RR-SRC peptide; average of the number of tests; read-out: IC50;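 further: radiometric kinase assay measuring radiolabeled phosphate transfer from ATP onto the peptide tyrosine by scintillation counting, control is reaction without compound, background subtracted, IC50 from dose-response curve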
T2 construct: containing the EGFR cDNA encoding amino acids 645 - 1186 preceded by Met-Ala-(His)6; made in house; host or cells: Sf9 cells, recombinant baculovirus vHcEGFR52
Protocol: The enzyme used in this assay is the His-tagged cytoplasmic domain of EGFR.
Compounds to be evaluated were made into 10 mg/mL stock solutions in 100% dimethylsulfoxide (DMSO). Prior to experiment, stock solutions were diluted to 500 µM with 100% DMSO and then serially diluted to the desired concentration with HEPES buffer (30 mM HEPES pH 7.4).
For the enzyme reaction, 10 µL of each inhibitor (at various concentrations) were added to each well of a 96-well plate. […] This was allowed to sit for 10 min on ice and was followed by the addition of 5 µl peptide (80 µM final conc.), 10µl of 4X Buffer (Table A), 0.25 µL ^33P-ATP and 12 µL H2O. The reaction was allowed to run for 90 min at room temperature and was followed by spotting the entire volume on to precut P81 filter papers. The filter discs were washed 2X with 0.5% phosphoric acid and radioactivity was measured using a liquid scintillation counter.
The % inhibition of the test compound was determined for at least three different concentrations and the IC50 value was evaluated from the dose response curve. […] CPM(control) is in units of counts per minute and was a number expressing the amount of radiolabeled ATP (g-33P) incorporated into the RR-SRC peptide substrate by the enzyme after 90 minutes at room temperature in the absence of test compound as measured by liquid scintillation counting. The CPM values were corrected for the background counts produced by ATP in the absence of the enzymatic reaction. The IC50 values reported in TABLE 2 are averages of the number of tests conducted.

[9] = pH 7.2, radioactive format, read-out: KDR IC50 (converted)
[10] = read-out: IC50 A431, cell number, Sulforhodamine B, 48 hours exposure
[11] = SK-BR-3, 48 h, read-out: IC50 SKBR3, cell number, Sulforhodamine B, 48 hours exposure
[12] = read-out: IC50 SW620, cell number, Sulforhodamine B, 48 hours exposure
[13] = read-out: IC50 MCF7, cell number, Sulforhodamine B, 48 hours exposure
[14] = read-out: IC50 LOX, cell number, Sulforhodamine B, 48 hours exposure
[15] = cell number, Sulforhodamine B, 48 hours exposure, read-out: IC50 A431
[16] = SK-BR-3, cell number, Sulforhodamine B, 48 hours exposure, read-out: IC50 SKBR3
[17] = cell number, Sulforhodamine B, 48 hours exposure, read-out: IC50 SW620
[18] = cell number, Sulforhodamine B, 48 hours exposure, read-out: IC50 MCF7
[19] = cell number, Sulforhodamine B, 48 hours exposure, read-out: IC50 LOX

T2 sequence (P00533 669-1210): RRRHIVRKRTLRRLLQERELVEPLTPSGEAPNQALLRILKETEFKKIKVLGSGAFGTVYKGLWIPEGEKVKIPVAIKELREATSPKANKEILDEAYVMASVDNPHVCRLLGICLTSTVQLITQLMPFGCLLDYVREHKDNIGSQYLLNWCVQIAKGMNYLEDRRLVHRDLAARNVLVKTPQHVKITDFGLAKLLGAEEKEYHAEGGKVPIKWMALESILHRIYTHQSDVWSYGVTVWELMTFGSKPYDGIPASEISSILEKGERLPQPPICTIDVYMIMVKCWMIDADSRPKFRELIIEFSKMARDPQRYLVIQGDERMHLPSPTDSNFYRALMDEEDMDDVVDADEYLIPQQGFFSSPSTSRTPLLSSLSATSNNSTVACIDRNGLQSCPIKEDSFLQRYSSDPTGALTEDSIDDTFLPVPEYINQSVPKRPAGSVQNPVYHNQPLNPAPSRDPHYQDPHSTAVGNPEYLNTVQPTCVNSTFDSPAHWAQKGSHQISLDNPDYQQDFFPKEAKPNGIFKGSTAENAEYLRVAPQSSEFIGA
T1 sequence (P35968 834-1162 limits assumed): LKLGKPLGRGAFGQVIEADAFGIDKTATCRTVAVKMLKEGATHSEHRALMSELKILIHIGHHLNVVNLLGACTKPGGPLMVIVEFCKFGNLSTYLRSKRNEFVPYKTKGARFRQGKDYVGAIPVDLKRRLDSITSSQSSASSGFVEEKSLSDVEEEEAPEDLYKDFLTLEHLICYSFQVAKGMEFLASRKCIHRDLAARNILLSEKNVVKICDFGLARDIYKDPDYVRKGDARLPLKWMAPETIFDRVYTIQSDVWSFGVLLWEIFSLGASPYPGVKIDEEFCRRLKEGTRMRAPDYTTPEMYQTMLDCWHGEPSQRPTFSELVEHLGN

Molecule: 4-(4-Chloro-2-fluoro-phenylamino)-5,8-dimethoxy-quinoline-3-carbonitrile [Example 238]
- IC50 [1]: > 100 µM
- KDR IC50 ([2]; pH 7.2, radioactive format): >30 mg/L

Molecule: COc1cc2c(Nc3cc(O)c(Cl)cc3F)c(C#N)cnc2cc1OCCN(C)C [Example 86, 4-(4-Chloro-2-fluoro-5-hydroxy-phenylamino)-7-(2-dimethylamino-ethoxy)-6-methoxy-quinoline-3-carbonitrile]
- IC50 [1]: 1.8 µM and 2 µM
- IC50 [2, 9]: 6.96 µM

Molecule: COc1cc2c(Nc3cc(O)c(Cl)cc3F)c(C#N)cnc2cc1OCCN1CCOCC1 [Example 87, 4-(4-Chloro-2-fluoro-5-hydroxy-phenylamino)-6-methoxy-7-(2-morpholin-4-yl-ethoxy)-quinoline-3-carbonitrile]
- IC50 [2, 9]: 6.34 µM

Molecule: CCOc1cc2c(Nc3ccc(C)c(O)c3)c(C#N)cnc2cc1OC [Example 97, 6-Ethoxy-4-(3-hydroxy-4-methylphenylamino)-7-methoxyquinoline-3-carbonitrile]
- IC50 [2, 9]: 0.286 µM

Molecule: Cc1cc([N+](=O)[O-])cc2c(Nc3cccc(Br)c3)c(C#N)cnc12 [Example 105, 4-[(3-Bromophenyl)amino]-8-methyl-6-nitro-3-quinolinecarbonitrile]
- IC50 [3, 10]: 0.13 mg/L (≈ 0.339 µM)
- IC50 [4, 11]: 1.84 mg/L (≈ 4.8 µM)
- IC50 [1]: > 100 µM
- IC50 [5, 12]: 0.06 mg/L (≈ 0.157 µM)
- IC50 [6, 13]: 2.09 mg/L (≈ 5.45 µM)
- IC50 [7, 14]: 0.72 mg/L (≈ 1.88 µM)
- IC50 [8]: 0.001 µM

Molecule: COc1cc2ncc(C#N)c(Nc3ccc(Cl)cc3F)c2cc1OCCCN1CCOCC1 [Example 127]
- IC50 [1]: 6 µM
- IC50 [2]: 21.2 µM

Molecule: COc1cc2ncc(C#N)c(Nc3ccc(C)c(O)c3)c2cc1OCCCN1CCOCC1 [Example 128]
- IC50 [2]: 17.8 µM

Molecule: C=CC(=O)Nc1ccc2ncc(C#N)c(Nc3ccc(Br)cc3)c2c1 [Example 151, N-{4-[(4-Bromophenyl)amino]-3-cyano-6-quinolinyl} -2-propenamide]
- IC50 [3, 10]: 0.09 mg/L (≈ 0.229 µM)
- IC50 [4, 11]: 0.07 mg/L (≈ 0.178 µM)
- IC50 [5, 12]: < 0.01 mg/L
- IC50 [6, 13]: 0.61 mg/L (≈ 1.55 µM)
- IC50 [7, 14]: 0.08 mg/L (≈ 0.203 µM)
- IC50 [8]: 0.5 µM

Molecule: N#Cc1cnc2ccc([N+](=O)[O-])cc2c1Nc1ccc(F)c(F)c1 [Example 156, 4-[(3,4-Difluorophenyl)amino]-6-nitro-3-quinolinecarbonitrile]
- IC50 [3, 10]: 3.77 mg/L (≈ 11.6 µM)
- IC50 [4, 11]: 7.43 mg/L (≈ 22.8 µM)
- IC50 [1]: > 100 µM
- IC50 [5, 12]: 7.91 mg/L (≈ 24.2 µM)
- IC50 [6, 13]: 7.57 mg/L (≈ 23.2 µM)
- IC50 [7, 14]: 67 mg/L (≈ 205 µM)
- IC50 [8]: 0.5 µM

Molecule: C#Cc1cccc(Nc2c(C#N)cnc3ccc(NC(=O)C=C)cc23)c1 [Example 165, N-{3-Cyano-4-[(3-ethynyphenyl)amino]-6-quinolinyl)-2-propenamide]
- IC50 [3, 10]: 0.2 mg/L (≈ 0.591 µM)
- IC50 [4, 11]: 0.1 mg/L (≈ 0.296 µM)
- IC50 [1]: > 100 µM
- IC50 [5, 12]: 3 mg/L (≈ 8.87 µM)
- IC50 [6, 13]: 5.8 mg/L (≈ 17.1 µM)
- IC50 [7, 14]: 0.8 mg/L (≈ 2.36 µM)
- IC50 [8]: 0.0005 µM

Molecule: C=C(CC(=O)Nc1ccc2ncc(C#N)c(Nc3cccc(Br)c3)c2c1)C(=O)O [Example 186, 4-[[4-[(3-Bromophenyl)amino]-3-cyano-6-quinolinyl]-amino]-2-methylene-4-oxo-butanoic acid]
- IC50 [3, 10]: 37.6 mg/L (≈ 83.3 µM)
- IC50 [4, 11]: 21.5 mg/L (≈ 47.6 µM)
- IC50 [5, 12]: 62.6 mg/L (≈ 139 µM)
- IC50 [6, 13]: 42.5 mg/L (≈ 94.2 µM)
- IC50 [7, 14]: 46.4 mg/L (≈ 103 µM)
- IC50 [8]: 0.1 µM

Molecule: COc1cc2c(Nc3cccc(N(C)C)c3)c(C#N)cnc2c(OC)c1OC [Example 232, 4-(3-Dimethylamino-phenylamino)-6.7.8-trimethoxy-quinoline-3-carbonitrile]
- IC50 [2, 9]: > 79.3 µM

Molecule: COc1cc2c(Nc3ccc(C)c(O)c3)c(C#N)cnc2c(OC)c1OC [Example 233, 4-(3-Hydroxy-4-methyl-phenylamino)-6,7,8-trimethoxy-quinoline-3-carbonitrile]
- IC50 [1]: 80 µM
- IC50 [2, 9]: > 82.1 µM

Molecule: COc1cc2c(Nc3ccc(Cl)cc3F)c(C#N)cnc2c(OC)c1OC [Example 234, 4-(4-Chloro-2-fluoro-phenylamino)-6,7,8-trimethoxy-quinoline-3-carbonitrile]
- IC50 [1]: > 100 µM
- IC50 [2, 9]: > 77.4 µM

Molecule: COc1ccc(OC)c2c(Nc3ccc(C)c(O)c3)c(C#N)cnc12 [Example 239, 4-(3-Hydroxy-4-methyl-phenylamino)-5,8-dimethoxy-quinoline-3-carbonitrile]
- IC50 [1]: > 100 µM
- IC50 [2, 9]: > 89.5 µM

Molecule: COc1ccc(OC)c2c(Nc3cccc(Br)c3)c(C#N)cnc12 [Example 240, 4-(3-Bromo-phenylamino)-5.8-dimethoxy-quinoline-3-carbonitrile]
- IC50 [1]: 10 µM
- IC50 [2, 9]: > 78.1 µM

Molecule: COc1ccc(OC)c2c(Nc3cccc(N(C)C)c3)c(C#N)cnc12 [Example 242, 4-(3-Dimethylamino-phenylamino)-5,8-dimethoxy-quinoline-3-carbonitrile]
- IC50 [1]: 10 µM
- IC50 [2, 9]: > 86.1 µM

Molecule: COc1cc2ncc(C#N)c(Nc3ccc(Sc4ccccc4)c(Cl)c3)c2cc1OC [Example 255, 4-[3-Chloro-4-(phenylthio)phenylamino]-6,7-dimethoxy-3-quinolinecarbonitrile]
- IC50 [3, 10]: 0.59 mg/L (≈ 1.32 µM)
- IC50 [4, 11]: 0.35 mg/L (≈ 0.781 µM)
- IC50 [5, 12]: 0.58 mg/L (≈ 1.29 µM)
- IC50 [6, 13]: 2.85 mg/L (≈ 6.36 µM)
- IC50 [7, 14]: 0.69 mg/L (≈ 1.54 µM)
- IC50 [8]: 0.1 µM

Molecule: N#Cc1cnc2ccc(NC(=O)C#CCN3CCOCC3)cc2c1Nc1cccc(Br)c1 [Example 328, N-[4-[(3-Bromophenyl)amino]-3-cyano-6-quinolinyl]-4-morpholino-2-butynamide]
- IC50 [3, 15]: 0.19 mg/L (≈ 0.387 µM)
- IC50 [4, 16]: 0.02 mg/L (≈ 0.0408 µM)
- IC50 [1]: > 100 µM
- IC50 [5, 17]: 0.15 mg/L (≈ 0.306 µM)
- IC50 [6, 18]: 0.78 mg/L (≈ 1.59 µM)
- IC50 [7, 19]: 0.33 mg/L (≈ 0.673 µM)
- IC50 [8]: 0.0045 µM

Molecule: CN(C)CC#CC(=O)Nc1ccc2ncc(C#N)c(Nc3cccc(Br)c3)c2c1 [Example 329, N-[4-[(3-Bromophenyl)amino]-3-cyano-6-quinolinyl]-4-dimethylamino-2-butynamide]
- IC50 [3, 15]: 0.22 mg/L (≈ 0.491 µM)
- IC50 [4, 16]: 0.21 mg/L (≈ 0.468 µM)
- IC50 [1]: > 100 µM
- IC50 [5, 17]: 0.03 mg/L (≈ 0.0669 µM)
- IC50 [6, 18]: 0.75 mg/L (≈ 1.67 µM)
- IC50 [7, 19]: 0.58 mg/L (≈ 1.29 µM)
- IC50 [8]: 0.00045 µM

Molecule: COCC#CC(=O)Nc1ccc2ncc(C#N)c(Nc3cccc(Br)c3)c2c1 [Example 330, N-[4-[(3-Bromophenyl)amino]-3-cyano-6-quinoliny]-4-methoxy-2-butynamide]
- IC50 [3, 15]: 0.05 mg/L (≈ 0.115 µM)
- IC50 [4, 16]: 0.23 mg/L (≈ 0.528 µM)
- IC50 [1]: > 100 µM
- IC50 [5, 17]: 0.02 mg/L (≈ 0.0459 µM)
- IC50 [6, 18]: 0.36 mg/L (≈ 0.827 µM)
- IC50 [7, 19]: 0.02 mg/L (≈ 0.0459 µM)
- IC50 [8]: 0.00028 µM

Molecule: N#Cc1cnc2ccc(NC(=O)C#CCO)cc2c1Nc1cccc(Br)c1 [Example 332]
- IC50 [3, 15]: 0.6 mg/L (≈ 1.42 µM)
- IC50 [4, 16]: 0.08 mg/L (≈ 0.19 µM)
- IC50 [1]: 25 µM and < 50 µM
- IC50 [5, 17]: 0.44 mg/L (≈ 1.04 µM)
- IC50 [6, 18]: 54.9 mg/L (≈ 130 µM)
- IC50 [7, 19]: 0.51 mg/L (≈ 1.21 µM)
- IC50 [8]: 0.0009 µM

Molecule: N#Cc1cnc2ccc(NCCCN3CCCC3)cc2c1Nc1cccc(Br)c1 [Example 358, 4-(3-Bromo-phenylamino)-6-(3-pyrrolidin-1-yl-propylamino)-quinoline-3-carbonitrile]
- IC50 [3, 15]: 0.5 mg/L (≈ 1.11 µM)
- IC50 [4, 16]: 0.7 mg/L (≈ 1.55 µM)
- IC50 [1]: 18 µM
- IC50 [5, 17]: 4.1 mg/L (≈ 9.1 µM)
- IC50 [6, 18]: 7.8 mg/L (≈ 17.3 µM)
- IC50 [7, 19]: 2.5 mg/L (≈ 5.55 µM)
- IC50 [8]: 0.1 µM

Molecule: CSc1cccc(Nc2c(C#N)cnc3ccc(N)cc23)c1 [Example 363, 6-Amino-4-[(3-methylsulfanylphenyl)amino]-3-quinolinecarbonitrile]
- IC50 [3, 15]: 0.07 mg/L (≈ 0.228 µM)
- IC50 [4, 16]: 0.06 mg/L (≈ 0.196 µM)
- IC50 [1]: 25 µM
- IC50 [5, 17]: 0.08 mg/L (≈ 0.261 µM)
- IC50 [6, 18]: 0.8 mg/L (≈ 2.61 µM)
- IC50 [7, 19]: 0.08 mg/L (≈ 0.261 µM)
- IC50 [8]: 0.1 µM

Source: patent EP0973746B1, “SUBSTITUTED 3-CYANO QUINOLINES” (Wyeth Holdings Corporation, priority 1997, dated 1998)
